# Measurements reported in BindingDB's records for doi:10.1016/S0960-894X(01)00040-3 (Glaxosmithkline, 2001).
# Biological target: Tyrosine--tRNA ligase (Staphylococcus aureus)
# Assay: Inhibitory activity against Staphylococcus aureus tyrosyl tRNA synthetase (YRS) using aminoacylation assay
row,IC50,SMILES
1,3.6 nM,"CCCCOC(=O)C(NC(=O)[C@@H](N)Cc1ccc(O)cc1)[C@H]1C[C@@H](O)[C@@H](O)[C@@H](C)O1 (stereo partly drawn) [[2-Amino-3-((S)-4-hydroxy-phenyl)-propionylamino]-((2R,4R,5R,6R)-4,5-dihydroxy-6-methyl-tetrahydro-pyran-2-yl)-acetic acid butyl ester]"
2,190 nM,"N[C@@H](Cc1ccc(O)cc1)C(=O)NC(C(=O)O)[C@@H]1O[C@H](CO)[C@H](O)[C@H](O)[C@H]1O (stereo partly drawn) [[2-Amino-3-((S)-4-hydroxy-phenyl)-propionylamino]-((2S,3R,4R,5R,6R)-3,4,5-trihydroxy-6-hydroxymethyl-tetrahydro-pyran-2-yl)-acetic acid]"
3,0.8 nM,"CCCCOC(=O)[C@@H](NC(=O)[C@@H](N)Cc1ccc(O)cc1)[C@@H]1O[C@H](C)[C@H](O)[C@H](O)[C@H]1O [[2-Amino-3-((S)-4-hydroxy-phenyl)-propionylamino]-((2S,3R,4S,5R,6R)-3,4,5-trihydroxy-6-methyl-tetrahydro-pyran-2-yl)-acetic acid (S)-butyl ester]"
